Source: patent US20190194179A1, “ANTIBIOTIC COMPOUNDS” (DISCUVA LTD., priority 2016, published 2019)
pIC50: −log10 of the molar value. Read-outs that look alike come from different tables or passages of the source.

What was measured:
Format in all cases: cell-based
[1] = test system: Neisseria gonorrhoeae; assay: EC50 determination: plate-based broth growth assay (absorbance at 600 nm) of Neisseria gonorrhoeae; conditions: absorbance 600 nm after 20 hours at 37° C./5% CO2, read-out: IC50 (Inhibitory concentration) against Neisseria gonorrhoeae
Method in brief: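 Mid-log culture diluted to ~10^5 cells/ml as inoculum and grown 20 hours at 37° C./5% CO2 across a 10-point compound dilution series. Growth read as absorbance at 600 nm; EC50 taken from transformed data as the concentration giving 50% response relative to no-compound controls.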

[2] = test system: Staphylococcus aureus; assay: EC50 determination: broth growth assay of Staphylococcus aureus (Isosensitest broth); conditions: Table 1, panel of bacteria, 37° C., read-out: IC50 concentration against Staphylococcus aureus
Protocol: (§1) Actively growing Neisseria gonorrhoeae on GC agar (based on; Spence et. al. (2008): Curr. Protoc. Microbiol. 8:4A.1.1-4A.1.26) plates are harvested and transferred to GC broth (based on; Spence et al (2008): Curr. Protoc. Microbiol. 8:4A.1.1-4A.1.26) to generate a liquid stock. This culture is allowed to establish and grow to mid-log phase (at 37° C./5% CO2), finally this culture is diluted (˜10^5 cells/ml) to generate a seed inoculum to establish plate-based broth assays. EC50 values were determined by assaying growth (absorbance read at 600 nm, after 20 hours at 37° C./5% CO2) of Neisseria gonorrhoeae across a 10-point dilution series of the test compound. The EC50 value is determined from transformed data to identify the concentration of compound giving a 50% response relative to control samples (no compound).
(§2) EC50 determination for Staphylococcus aureus and Enterococcus Spp. followed a similar procedure but were conducted using Isosensitest broth (Oxoid) with incubations at 37° C. in atmospheric air. Final absorbance reads were conducted during the late exponential growth phase.

[3] = test system: Enterococcus Spp.; assay: EC50 determination: broth growth assay of Enterococcus Spp. (Isosensitest broth); conditions: Table 1, panel of bacteria, 37° C.
Protocol: as §1, §2

[4] = Enterococcus faecalis, read-out: IC50 concentration against Entercoccus faecalis
[5] = Enterococcus faecium, read-out: IC50 concentration against Enterococcus faecium

SMILES | pIC50 [1] | pIC50 [2] | pIC50 [3, 4] | pIC50 [3, 5]
FC(F)(F)c1ccc2oc(Nc3nc4cnccc4o3)nc2c1 [Example 60, N-(5-(triFluoromethyl)benzo[d]oxazol-2-yl)oxazolo[4,5-c]pyridin-2-amine] | ≥ 7.00 | ≥ 5.00 | ≥ 6.00 | ≥ 5.00
FC(F)(F)c1ccc2oc(Nc3nnco3)nc2c1 [Example 67, N-(1,3,4-Oxadiazol-2-yl)-5-(trifluoromethyl)benzo[d]oxazol-2-amine] | ≥ 7.00 | ≥ 6.00 | ≥ 5.00 | ≥ 6.00
FC(F)(F)c1cc2nc(Nc3nnc(CN4CCCC4)o3)oc2cc1Cl [Example 80, 6-Chloro-N-(5-(pyrrolidin-1-ylmethyl)-1,3,4-oxadiazol-2-yl)-5-(trifluoromethyl)benzo[d]oxazol-2-amine] | ≥ 7.00 | ≥ 6.00 | ≥ 6.00 | ≥ 5.00
Cc1nnc(Nc2nc3cc(C(F)(F)F)ccc3o2)[nH]1 [Example 117, N-(5-Methyl-4H-1,2,4-triazol-3-yl)-5-(trifluoromethyl)benzo[d]oxazol-2-amine] | ≥ 6.00 | ≥ 6.00 | ≥ 5.00 | ≥ 5.00
Clc1ccc2nc(Nc3nc4cnccc4o3)oc2c1 [Example 159, N-(6-Chlorobenzo[d]oxazol-2-yl)oxazolo[4,5-c]pyridin-2-amine] | ≥ 4.00 | ≥ 4.00 | ≥ 4.00 | ≥ 4.00
Cc1cc(Cl)cc2oc(Nc3nnco3)nc12 [Example 189, 6-Chloro-4-methyl-N-(1,3,4-oxadiazol-2-yl)benzo[d]ox-azol-2-amine] | ≥ 7.00 | – | – | –
COc1cc2oc(Nc3nnco3)nc2cc1Cl [Example 190, 5-Chloro-6-methoxy-N-(1,3,4-oxadiazol-2-yl)benzo[d]ox-azol-2-amine] | ≥ 7.00 | – | – | –
FC(F)(F)Oc1cc2oc(Nc3nnco3)nc2cc1Cl [Example 191] | ≥ 7.00 | – | – | –
COCCOc1ccc2nc(Nc3nnco3)oc2c1 [Example 193, 6-(2-methoxyethoxy)-N-(1,3,4-oxadiazol-2-yl)benzo[d]oxazol-2-amine] | ≥ 6.00 | – | – | –
CC(C)Oc1ccc2nc(Nc3nnco3)oc2c1 [Example 196, 6-Isopropoxy-N-(1,3,4-oxadiazol-2-yl)benzo[d]oxazol-2-amine] | ≥ 4.00 | – | – | –
COc1cc2nc(Nc3nnco3)oc2cc1Cl [Example 204, 6-chloro-5-methoxy-N-(1,3,4-oxadiazol-2-yl)benzo[d]oxa-zol-2-amine] | ≥ 6.00 | – | – | –
FC(F)(F)Oc1cc2nc(Nc3nnco3)oc2cc1Cl [Example 205, 6-Chloro-N-(1,3,4-oxadiazol-2-yl)-5-(trifluoro-methoxy)benzo [d]ox-azol-2-amine] | ≥ 6.00 | – | – | –
Fc1cc2oc(Nc3nnco3)nc2cc1OC(F)(F)F [Example 207, 6-Fluoro-N-(1,3,4-oxadiazol-2-yl)-5-(trifluoromethoxy) benzo[d]ox-azol-2-amine] | ≥ 7.00 | – | – | –
COc1cc2oc(Nc3nnco3)nc2cc1C [Example 208, 6-Methoxy-5-methyl-N-(1,3,4-oxadiazol-2-yl)benzo[d]oxa-zol-2-amine] | ≥ 6.00 | – | – | –
O=C1CCCN1c1ccc2nc(Nc3nnco3)oc2c1 [Example 212, 1-(2-((1,3,4-oxadiazol-2-yl)amino)benz-o[d]oxazol-6-yl)pyrrolidin-2-one] | ≥ 4.00 | – | – | –
CC(=O)N(C)c1ccc2nc(Nc3nnco3)oc2c1 [Example 215, N-(2-((1,3,4-Oxadiazol-2-yl)amino)benz-o[d]oxazol-6-yl)-N-methylacetamide] | ≥ 4.00 | – | – | –
CCOC(=O)c1noc(Nc2nc3ccc(Cl)cc3o2)n1 [Example 216, Ethyl 5-((6-chlorobenzo[d]oxazol-2-yl)amino)-1,2,4-oxadiazole-3-carboxylate] | ≥ 6.00 | – | – | –
Clc1cnc2nc(Nc3nnco3)oc2c1 [Example 220, 6-Chloro-N-(1,3,4-oxadiazol-2-yl)oxazolo[4,5-b]pyridin-2-amine] | ≥ 5.00 | – | – | –
Clc1ccc2nc(Nc3cocn3)oc2c1 [Example 221, 6-Chloro-N-(oxazol-4-yl)benzo[d]oxazol-2-amine] | ≥ 6.00 | – | – | –
Clc1ccc2nc(Nc3ccsn3)oc2c1 [Example 222, 6-Chloro-N-(isothiazol-3-yl)benzo[d]oxazol-2-amine] | ≥ 6.00 | – | – | –
Clc1ccc2nc(Nc3cnoc3)oc2c1 [Example 225, 6-Chloro-N-(isoxazol-4-yl)benzo[d]oxazol-2-amine] | ≥ 4.00 | – | – | –

The next lines start with results.

pIC50 [1] | pIC50 [2] | SMILES | pIC50 [3, 4] | pIC50 [3, 5]
≥ 7.00 | ≥ 6.00 | FC(F)(F)c1ccc2nc(Nc3nnc(C4CC4)o3)oc2c1 [Example 105, N-(5-Cyclopropyl-1,3,4-oxadiazol-2-yl)-6-(trifluoromethyl)benzo[d]oxazol-2-amine] | ≥ 6.00 | ≥ 6.00
≥ 5.00 | – | O=C(O)c1ccc2nc(Nc3nnco3)oc2c1 [Example 192, 2-((1,3,4-oxadiazol-2-yl)amino)benzo[d]oxazole-6-carboxylic acid] | – | –
≥ 7.00 | – | C#Cc1nnc(Nc2nc3ccc(Cl)cc3o2)o1 [Example 194, 6-Chloro-N-(5-ethynyl-1,3,4-oxadiazol-2-yl)benzo[d]oxazol-2-amine] | – | –
≥ 5.00 | – | Nc1ccc2nc(Nc3nnco3)oc2c1 [Example 195, N^2-(1,3,4-oxadiazol-2-yl)benzo[d]oxazole-2,6-diamine] | – | –
≥ 7.00 | – | Cc1cc2oc(Nc3nnco3)nc2cc1F [Example 197, 5-Fluoro-6-methyl-N-(1,3,4-oxadiazol-2-yl)benzo[d]oxazol-2-amine] | – | –
≥ 5.00 | – | Clc1ccc2nc(Nc3nnc(N4CCCC4)o3)oc2c1 [Example 198, 6-Chloro-N-(5-(pyrrolidin-1-yl)-1,3,4-oxadiazol-2-yl)benzo[d]oxa-zol-2-amine] | – | –
≥ 6.00 | – | Clc1ccc2nc(Nc3nnc(C4CCOC4)o3)oc2c1 (stereo not shown) [Example 199, 6-Chloro-N-(5-(tetrahydrofuran-3-yl)-1,3,4-oxadiazol-2-yl)benzo[d]oxa-zol-2-amine] | – | –
≥ 4.00 | – | NC(=O)c1nnc(Nc2nc3ccc(Cl)cc3o2)o1 [Example 200, 5-((6-Chlorobenzo[d]oxazol-2-yl)amino)-1,3,4-oxadiazole-2-carboxamide] | – | –
≥ 4.00 | – | NC(=O)c1nnc(Nc2nc3ccc(F)cc3o2)o1 [Example 201, 5-((6-Fluorobenzo[d]oxazol-2-yl)amino)-1,3,4-oxadiazole-2-carboxamide] | – | –
≥ 3.70 | – | NC(=O)c1nnc(Nc2nc3cc(F)ccc3o2)o1 [Example 202, 5-((5-Fluorobenzo[d]oxazol-2-yl)amino)-1,3,4-oxadiazole-2-carboxamide] | – | –
≥ 7.00 | – | Cc1cc2nc(Nc3nnco3)oc2cc1F [Example 203, 6-Fluoro-5-methyl-N-(1,3,4-oxadiazol-2-yl)benzo[d]oxa-zol-2-amine] | – | –
≥ 6.00 | – | COc1cc2oc(Nc3nnco3)nc2cc1F [Example 206, 5-Fluoro-6-methoxy-N-(1,3,4-oxadiazol-2-yl)benzo[d]oxa-zol-2-amine] | – | –
≥ 6.00 | – | COc1cc2nc(Nc3nnco3)oc2cc1F [Example 209, 6-Fluoro-5-methoxy-N-(1,3,4-oxadiazol-2-yl)benzo[d]oxa-zol-2-amine] | – | –
≥ 7.00 | – | FC(F)(F)Oc1ccc2nc(Nc3nnco3)oc2c1 [Example 210, N-(1,3,4-Oxadiazol-2-yl)-6-(trifluoromethoxy) benzo[d]ox-azol-2-amine] | – | –
≥ 6.00 | – | CC(C)c1ccc2nc(Nc3nnco3)oc2c1 [Example 211, 6-Isopropyl-N-(1,3,4-oxadiazol-2-yl)benzo[d]oxa-zol-2-amine] | – | –
≥ 7.00 | – | Clc1ccc2nc(Nc3nnc(C4CCCO4)o3)oc2c1 (stereo not shown) [Example 213, 6-Chloro-N-(5-(tetrahydrofuran-2-yl)-1,3,4-oxadiazol-2-yl)benzo[d]oxa-zol-2-amine] | – | –
≥ 7.00 | – | CC(C)c1nnc(Nc2nc3ccc(Cl)cc3o2)o1 [Example 214, 6-Chloro-N-(5-isopropyl-1,3,4-oxadiazol-2-yl)benzo[d]oxa-zol-2-amine] | – | –
≥ 7.00 | – | N#Cc1nnc(Nc2nc3ccc(Cl)cc3o2)o1 [Example 217, 5-((6-Chlorobenzo[d]oxazol-2-yl)amino)-1,3,4-oxadiazole-2-carbonitrile] | – | –
≥ 6.00 | – | N#Cc1nnc(Nc2nc3ccc(F)cc3o2)o1 [Example 218, 5-((6-Fluorobenzo[d]oxazol-2-yl)amino)-1,3,4-oxadiazole-2-carbonitrile] | – | –
≥ 6.00 | – | N#Cc1nnc(Nc2nc3cc(F)ccc3o2)o1 [Example 219, 5-((5-Fluorobenzo[d]oxazol-2-yl)amino)-1,3,4-oxadiazole-2-carbonitrile] | – | –
≥ 4.00 | – | O=C(O)c1nnc(Nc2nc3ccc(F)cc3o2)o1 [Example 223, Sodium 5-((6-fluorobenzo[d]oxazol-2-yl)amino)-1,3,4-oxadiazole-2-carboxylate] | – | –
≥ 4.00 | – | Clc1ccc2nc(Nc3ncno3)oc2c1 [Example 224, 6-chloro-N-(1,2,4-oxadiazol-5-yl)benzo[d]oxazol-2-amine] | – | –
